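How tested: cells in 96-well plates exposed to compound for 48 hours at five concentrations. TGI: total growth inhibition.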 Where a SMILES comes first, the peptide text is derived from it. Side-chain parts run from the residue outwards. The star is where a group is joined. Cbz = O=C(OCc1ccccc1)*; Boc = CC(C)(C)OC(=O)*
Assays:
Assay in all cases: inhibition of tumour cell growth, NCI panel, 48 h
[1] = tested on: SW-620 colon
[2] = tested on: EKVX NSCLC
[3] = tested on: SN12C renal
[4] = tested on: CAKI-1 renal
[5] = tested on: SNB-19 CNS
[6] = tested on: NCI-H460 lung
[7] = tested on: SNB-75 CNS
[8] = tested on: CCRF-CEM leukemia
[9] = tested on: HOP-62 NSCLC
[10] = tested on: OVCAR-3 ovarian
[11] = tested on: MDA-N
[12] = tested on: SK-MEL-5 melanoma
[13] = tested on: MCF7 breast
[14] = tested on: HCT-116 colon
[15] = tested on: M14 melanoma
[16] = tested on: ACHN renal

SMILES: Cc1cc(NS(=O)(=O)c2ccc(NC(=O)c3cccc4c(NNc5ccc(S(N)(=O)=O)cc5)c5ccccc5nc34)cc2)no1
- TGI [1]: > 100 µM
- TGI [2]: > 100 µM
- TGI [3]: > 100 µM
- TGI [4]: > 100 µM
- TGI [5]: > 100 µM
- TGI [6]: > 100 µM
- TGI [7]: 96.6 µM
- TGI [8]: 66.2 µM
- TGI [9]: > 100 µM
- TGI [10]: 71.1 µM
- TGI [11]: > 100 µM
- TGI [12]: > 100 µM
- TGI [13]: > 100 µM
- TGI [14]: > 100 µM
- TGI [15]: > 100 µM
- TGI [16]: > 100 µM

SMILES: O=C(O)[C@H]1NC[C@@H]2ON=C(Br)[C@@H]21
- TGI [1]: > 100 µM
- TGI [2]: > 100 µM
- TGI [3]: > 100 µM
- TGI [4]: > 100 µM
- TGI [5]: > 100 µM
- TGI [6]: > 100 µM
- TGI [7]: > 100 µM
- TGI [8]: > 100 µM
- TGI [9]: > 100 µM
- TGI [10]: > 100 µM
- TGI [11]: > 100 µM
- TGI [12]: > 100 µM
- TGI [13]: > 100 µM
- TGI [14]: > 100 µM
- TGI [15]: > 100 µM
- TGI [16]: > 100 µM

SMILES: CS(=O)(=O)OC1CCN(C2(c3cccc(O)c3)CCCCC2)CC1
- TGI [1]: > 100 µM
- TGI [2]: > 100 µM
- TGI [3]: > 100 µM
- TGI [4]: > 100 µM
- TGI [5]: > 100 µM
- TGI [6]: > 100 µM
- TGI [7]: > 100 µM
- TGI [8]: 60.5 µM
- TGI [9]: > 100 µM
- TGI [10]: > 100 µM
- TGI [11]: > 100 µM
- TGI [12]: > 100 µM
- TGI [13]: > 100 µM
- TGI [14]: > 100 µM
- TGI [15]: > 100 µM
- TGI [16]: > 100 µM

SMILES: COC(=O)C1=C2Nc3ccccc3C23CCN2C(O)C4(CC5CC67CCOC6CCN6CCC8(c9cccc(OC)c9N(C4)C58O)C67)C4OCCC4(C1)C23 (centres undefined)
- TGI [1]: > 100 µM
- TGI [2]: > 100 µM
- TGI [3]: > 100 µM
- TGI [4]: > 100 µM
- TGI [5]: > 100 µM
- TGI [6]: > 100 µM
- TGI [7]: 68.3 µM
- TGI [8]: > 100 µM
- TGI [9]: > 100 µM
- TGI [10]: > 100 µM
- TGI [11]: > 100 µM
- TGI [12]: > 100 µM
- TGI [13]: > 100 µM
- TGI [14]: > 100 µM
- TGI [15]: > 100 µM
- TGI [16]: > 100 µM

SMILES: CC(Nc1cc(=O)n(C)c(=O)[nH]1)c1ccccc1 (centres undefined)
- TGI [1]: > 100 µM
- TGI [2]: > 100 µM
- TGI [3]: > 100 µM
- TGI [4]: > 100 µM
- TGI [5]: > 100 µM
- TGI [6]: > 100 µM
- TGI [7]: > 100 µM
- TGI [8]: > 100 µM
- TGI [9]: > 100 µM
- TGI [10]: > 100 µM
- TGI [11]: > 100 µM
- TGI [12]: > 100 µM
- TGI [13]: > 100 µM
- TGI [14]: > 100 µM
- TGI [15]: > 100 µM
- TGI [16]: > 100 µM

SMILES: Cc1noc(C)c1N=Nc1ccc2nonc2c1N
- TGI [1]: > 100 µM
- TGI [2]: 9.77 µM
- TGI [3]: > 100 µM
- TGI [4]: > 100 µM
- TGI [5]: > 100 µM
- TGI [6]: > 100 µM
- TGI [7]: 42.2 µM
- TGI [8]: > 100 µM
- TGI [9]: > 100 µM
- TGI [10]: > 100 µM
- TGI [11]: > 100 µM
- TGI [12]: > 100 µM
- TGI [13]: > 100 µM
- TGI [14]: > 100 µM
- TGI [15]: > 100 µM
- TGI [16]: > 100 µM

SMILES: COC(=O)C(Cc1ccccc1)NC(=O)C(CCCN=C(N)N)NC(=O)OCc1ccccc1 (centres undefined)
- TGI [1]: > 100 µM
- TGI [2]: > 100 µM
- TGI [3]: > 100 µM
- TGI [4]: > 100 µM
- TGI [5]: > 100 µM
- TGI [6]: > 100 µM
- TGI [7]: > 100 µM
- TGI [8]: > 100 µM
- TGI [9]: > 100 µM
- TGI [10]: > 100 µM
- TGI [11]: > 100 µM
- TGI [12]: > 100 µM
- TGI [13]: > 100 µM
- TGI [14]: > 100 µM
- TGI [15]: > 100 µM
- TGI [16]: > 100 µM

SMILES: O=S(=O)(Nc1nc(-c2cc(O)c(O)c(O)c2)cs1)c1ccc(Cl)cc1Cl
- TGI [1]: 37.5 µM
- TGI [2]: 33.5 µM
- TGI [3]: 33.4 µM
- TGI [4]: 35.5 µM
- TGI [5]: > 100 µM
- TGI [6]: 38.6 µM
- TGI [7]: 77.6 µM
- TGI [8]: 41.5 µM
- TGI [9]: 35.1 µM
- TGI [10]: 37.6 µM
- TGI [11]: 73.9 µM
- TGI [12]: 34.2 µM
- TGI [13]: 36.1 µM
- TGI [14]: 40.1 µM
- TGI [15]: 50.6 µM
- TGI [16]: 28.1 µM

SMILES: CC[C@@]1(O)C(=O)OCc2c1cc1n(c2=O)Cc2c-1nc1ccccc1c2/C=N\NC(=O)C(N)=O
- TGI [1]: > 100 µM
- TGI [2]: > 100 µM
- TGI [3]: > 100 µM
- TGI [4]: 17.5 µM
- TGI [5]: 9.65 µM
- TGI [6]: 29.9 µM
- TGI [7]: > 26 µM
- TGI [9]: > 45.1 µM
- TGI [10]: > 100 µM
- TGI [11]: > 100 µM
- TGI [12]: 2.96 µM
- TGI [13]: > 45.4 µM
- TGI [14]: > 53.9 µM
- TGI [15]: 14.3 µM
- TGI [16]: 0.814 µM

SMILES: CC(C)CC(NC(=O)OCc1ccccc1)C(=O)NCCCCC(NC(=O)C(CCCCNC(=O)C(CC(C)C)NC(=O)OCc1ccccc1)NC(=O)C(CCCCNC(=O)C(CC(C)C)NC(=O)OCc1ccccc1)NC(=O)C(CCCCNC(=O)C(CC(C)C)NC(=O)OCc1ccccc1)NC(=O)OC(C)(C)C)C(=O)O (centres undefined) (Boc-K([Leu-Cbz])K([Leu-Cbz])K([Leu-Cbz])K([Leu-Cbz])-OH; configuration not given here)
- TGI [1]: > 25 µM
- TGI [3]: > 25 µM
- TGI [4]: > 25 µM
- TGI [5]: > 25 µM
- TGI [6]: > 25 µM
- TGI [7]: > 25 µM
- TGI [8]: > 25 µM
- TGI [9]: > 25 µM
- TGI [10]: > 25 µM
- TGI [11]: > 25 µM
- TGI [12]: > 25 µM
- TGI [13]: > 25 µM
- TGI [14]: > 25 µM
- TGI [15]: > 25 µM
- TGI [16]: > 25 µM

SMILES: C[n+]1c(-c2ccc(/C=N/Nc3n[nH]c(=S)n3N/N=C/c3ccc(-c4cn5ccccc5[n+]4C)cc3)cc2)cn2ccccc21
- TGI [1]: > 100 µM
- TGI [2]: > 100 µM
- TGI [3]: > 100 µM
- TGI [5]: > 100 µM
- TGI [6]: > 100 µM
- TGI [7]: > 100 µM
- TGI [8]: > 100 µM
- TGI [9]: > 100 µM
- TGI [11]: > 100 µM
- TGI [12]: > 100 µM
- TGI [13]: > 100 µM
- TGI [14]: > 100 µM
- TGI [15]: > 100 µM
- TGI [16]: > 100 µM

SMILES: COc1cc(C2c3cc4c(cc3OC(N3CCOCC3)C2C)OCO4)cc(OC)c1OC (centres undefined)
- TGI [1]: > 100 µM
- TGI [2]: > 100 µM
- TGI [3]: > 100 µM
- TGI [4]: 23.3 µM
- TGI [5]: 18.7 µM
- TGI [6]: 10.2 µM
- TGI [7]: > 48.2 µM
- TGI [8]: > 100 µM
- TGI [9]: 52.8 µM
- TGI [10]: > 23 µM
- TGI [11]: 0.439 µM
- TGI [12]: 6.78 µM
- TGI [13]: > 77 µM
- TGI [14]: 12.7 µM
- TGI [15]: 44.1 µM
- TGI [16]: 50.3 µM

SMILES: O=C1O[C@H](COC(=O)c2ccccc2)[C@@H](OC(=O)c2ccccc2)C=C1OC(=O)c1ccccc1
- TGI [1]: 35.9 µM
- TGI [2]: 34.3 µM
- TGI [3]: 36.9 µM
- TGI [4]: 51.2 µM
- TGI [5]: 35.6 µM
- TGI [6]: 36.6 µM
- TGI [7]: > 100 µM
- TGI [8]: 41.9 µM
- TGI [9]: 39.4 µM
- TGI [10]: 35.9 µM
- TGI [11]: > 100 µM
- TGI [12]: 36.2 µM
- TGI [13]: 91.3 µM
- TGI [14]: 32 µM
- TGI [15]: 31.9 µM
- TGI [16]: 35.3 µM

— PubChem BioAssay (NCI)
